Results reported in ChEMBL document CHEMBL1144117, “Two new cytotoxic carbonimidic dichlorides from the nudibranch Reticulidia fungia” (J Nat Prod, 1999).
Converted amounts (≈) assume the structure as drawn.

Tests used:
KB = assay: Cytotoxicity against human KB cells after 72 hrs by MTT assay; format: functional, cell-based
L1210 = assay: Cytotoxicity against mouse L1210 cells after 72 hrs by MTT assay; format: functional, cell-based; details: L1210, 72 h

CC1(C)[C@@H](Cl)[C@H](O)C[C@]2(C)C=C(/C=C/N=C(Cl)Cl)CC[C@@H]12 [RETICULIDIN A]
IC50 (KB): 0.41 µg/mL (≈ 1.17 µM) | IC50 (L1210): 0.59 µg/mL (≈ 1.68 µM)

CC1(C)[C@@H](Cl)[C@@H](O)C[C@]2(C)CC(/C=C/N=C(Cl)Cl)=CC[C@@H]12 [RETICULIDIN B]
IC50 (KB): 0.42 µg/mL (≈ 1.2 µM) | IC50 (L1210): 0.11 µg/mL (≈ 0.314 µM)
